{
  "source": "ChEMBL document CHEMBL4304773",
  "about": "“Nitroimidazole-containing compounds and their antibacterial and antitubercular activities” (2019)",
  "key": {"[1]": {"system": "Staphylococcus epidermidis", "assay": "Potency index, ratio of chloramphenicol MIC to test compound MIC for Staphylococcus epidermidis", "type": "functional"}, "Enterococcus faecalis [2]": {"system": "Enterococcus faecalis", "assay": "Antibacterial activity against Enterococcus faecalis", "type": "functional"}, "Enterococcus faecalis [3]": {"system": "Enterococcus faecalis", "assay": "Potency index, ratio of chloramphenicol MIC to test compound MIC for Enterococcus faecalis", "type": "functional"}, "[4]": {"system": "Staphylococcus epidermidis", "assay": "Antibacterial activity against Staphylococcus epidermidis", "type": "functional"}, "Pseudomonas aeruginosa [5]": {"system": "Pseudomonas aeruginosa", "assay": "Antibacterial activity against Pseudomonas aeruginosa", "type": "functional"}, "Proteus": {"system": "Proteus", "assay": "Antibacterial activity against Proteus", "type": "functional"}, "Bacillus subtilis [6]": {"system": "Bacillus subtilis", "assay": "Antibacterial activity against Bacillus subtilis", "type": "functional"}, "Escherichia coli [7]": {"system": "Escherichia coli", "assay": "Antibacterial activity against Escherichia coli", "type": "functional"}, "Salmonella typhimurium": {"system": "Salmonella typhimurium", "assay": "Antibacterial activity against Salmonella typhimurium", "type": "functional, Salmonella enterica subsp. enterica serovar Typhimurium", "conditions": "Salmonella enterica"}, "Staphylococcus aureus [8]": {"system": "Staphylococcus aureus", "assay": "Antibacterial activity against Staphylococcus aureus", "type": "functional"}, "Escherichia coli [9]": {"system": "Escherichia coli", "assay": "Antibacterial activity against drug-resistant Escherichia coli after 24 hrs", "type": "functional"}, "Enterococcus faecalis [10]": {"system": "Enterococcus faecalis", "assay": "Antibacterial activity against Enterococcus faecalis after 24 hrs", "type": "functional"}, "Staphylococcus aureus [11]": {"system": "Staphylococcus aureus", "assay": "Antibacterial activity against Staphylococcus aureus ATCC 29213 after 24 hrs", "type": "functional", "conditions": "ATCC 29213, 24 h"}, "Pseudomonas aeruginosa [12]": {"system": "Pseudomonas aeruginosa", "assay": "Antibacterial activity against Pseudomonas aeruginosa ATCC 27853 after 24 hrs", "type": "functional", "conditions": "ATCC 27853, 24 h"}, "Staphylococcus aureus [13]": {"system": "Staphylococcus aureus", "assay": "Antibacterial activity against methicillin-resistant Staphylococcus aureus after 24 hrs", "type": "functional"}, "Klebsiella pneumoniae [14]": {"system": "Klebsiella pneumoniae", "assay": "Antibacterial activity against Klebsiella pneumoniae after 24 hrs", "type": "functional"}, "Escherichia coli [15]": {"system": "Escherichia coli", "assay": "Potency index, ratio of norfloxacin MIC to test compound MIC for drug-resistant Escherichia coli", "type": "functional"}, "Pseudomonas aeruginosa [16]": {"system": "Pseudomonas aeruginosa", "assay": "Antibacterial activity against Pseudomonas aeruginosa after 24 hrs", "type": "functional"}, "Escherichia coli [17]": {"system": "Escherichia coli", "assay": "Antibacterial activity against Escherichia coli ATCC 25922 after 24 hrs", "type": "functional", "conditions": "ATCC 25922, 24 h"}, "Staphylococcus aureus [18]": {"system": "Staphylococcus aureus", "assay": "Antibacterial activity against Staphylococcus aureus ATCC 25923 after 24 hrs", "type": "functional", "conditions": "ATCC 25923, 24 h"}, "Helicobacter pylori [19]": {"system": "Helicobacter pylori", "assay": "Antibacterial activity against metronidazole-resistant Helicobacter pylori", "type": "functional"}, "Helicobacter pylori [20]": {"system": "Helicobacter pylori", "assay": "Antibacterial activity against metronidazole-resistant Helicobacter pylori clinical isolates", "type": "functional"}, "Helicobacter pylori [21]": {"system": "Helicobacter pylori", "assay": "Antibacterial activity against Helicobacter pylori", "type": "functional"}, "Helicobacter pylori [22]": {"system": "Helicobacter pylori", "assay": "Antibacterial activity against Helicobacter pylori NCTC 11637", "type": "functional"}, "Helicobacter pylori [23]": {"system": "Helicobacter pylori", "assay": "Potency index, ratio of metronidazole MIC90 to test compound MIC90 for metronidazole-resistant Helicobacter pylori", "type": "functional"}, "Helicobacter pylori [24]": {"system": "Helicobacter pylori", "assay": "Antibacterial activity against drug-sensitive Helicobacter pylori assessed as zone of inhibition at 8 ug/disc", "type": "functional", "conditions": "read-out: IZ"}, "Helicobacter pylori [25]": {"system": "Helicobacter pylori", "assay": "Antibacterial activity against Helicobacter pylori clinical isolate assessed as zone of inhibition at 8 ug/disc", "type": "functional", "conditions": "read-out: IZ"}, "Helicobacter pylori [26]": {"system": "Helicobacter pylori", "assay": "Antibacterial activity against drug-resistant Helicobacter pylori assessed as zone of inhibition at 8 ug/disc", "type": "functional", "conditions": "read-out: IZ"}, "Clostridioides difficile [27]": {"system": "Clostridioides difficile", "assay": "Antibacterial activity against Clostridium difficile ATCC 43603 assessed as zone of inhibition at 2.5 ug/disc after 24 hrs", "type": "functional", "conditions": "ATCC 43603, 24 h, read-out: IZ"}, "Clostridioides difficile [28]": {"system": "Clostridioides difficile", "assay": "Antibacterial activity against Clostridium difficile 630 assessed as zone of inhibition at 2.5 ug/disc after 24 hrs", "type": "functional", "conditions": "Clostridioides difficile, 630, 24 h; read-out: IZ"}, "Clostridioides difficile [29]": {"system": "Clostridioides difficile", "assay": "Antibacterial activity against Clostridium difficile R20291 assessed as zone of inhibition at 2.5 ug/disc after 24 hrs", "type": "functional", "conditions": "read-out: IZ"}, "Bacillus subtilis [30]": {"system": "Bacillus subtilis", "assay": "Antibacterial activity against Bacillus subtilis PTCC 1023 after 18 hrs by two fold serial dilution", "type": "functional", "conditions": "PTCC 1023, 18 h"}, "Escherichia coli [31]": {"system": "Escherichia coli", "assay": "Antibacterial activity against Escherichia coli ATCC 8739 after 18 hrs by two fold serial dilution", "type": "functional", "conditions": "ATCC 8739, 18 h"}, "Staphylococcus aureus [32]": {"system": "Staphylococcus aureus", "assay": "Antibacterial activity against Staphylococcus aureus ATCC 6538 after 18 hrs by two fold serial dilution", "type": "functional", "conditions": "ATCC 6538, 18 h"}, "Escherichia coli [33]": {"system": "Escherichia coli", "assay": "Antibacterial activity against Escherichia coli infected in mouse", "type": "functional"}, "[34]": {"system": "Staphylococcus epidermidis", "assay": "Antibacterial activity against Staphylococcus epidermidis ATCC 12228 after 18 hrs by two fold serial dilution", "type": "functional", "conditions": "ATCC 12228, 18 h"}, "Klebsiella pneumoniae [35]": {"system": "Klebsiella pneumoniae", "assay": "Antibacterial activity against Klebsiella pneumoniae ATCC 10031 after 18 hrs by two fold serial dilution", "type": "functional", "conditions": "ATCC 10031, 18 h"}},
  "data": [
    {"compound": "Cc1ncc([N+](=O)[O-])n1CCN1C(=O)S/C(=C\\c2ccccc2)C1=O", "values": [
      {"measurement": "Ratio", "setting": "[1]", "value": 2},
      {"measurement": "MIC", "setting": "Enterococcus faecalis [2]", "value": 62.5, "unit": "µg/mL"},
      {"measurement": "Ratio", "setting": "Enterococcus faecalis [3]", "value": 8},
      {"measurement": "MIC", "setting": "[4]", "value": 62.5, "unit": "µg/mL"}
    ]},
    {"compound": "CC(=O)N(Cc1ccc(Cl)cc1Cl)c1ccc(S(=O)(=O)NCCCn2c([N+](=O)[O-])cnc2C)cc1", "values": [
      {"measurement": "MIC", "setting": "Pseudomonas aeruginosa [5]", "value": "16 to 64", "unit": "µg/mL"},
      {"measurement": "MIC", "setting": "Proteus", "value": "16 to 64", "unit": "µg/mL"},
      {"measurement": "MIC", "setting": "Bacillus subtilis [6]", "value": "16 to 64", "unit": "µg/mL"},
      {"measurement": "MIC", "setting": "Escherichia coli [7]", "value": "16 to 64", "unit": "µg/mL"},
      {"measurement": "MIC", "setting": "Salmonella typhimurium", "value": "16 to 64", "unit": "µg/mL"},
      {"measurement": "MIC", "setting": "Staphylococcus aureus [8]", "value": "16 to 64", "unit": "µg/mL"}
    ]},
    {"compound": "COc1cc(/C=C(\\C#N)n2cc([N+](=O)[O-])nc2C)c2c(c1OCc1ccccc1F)CN1CCc3cc4c(cc3C1C2)OCO4", "note": "(centres undefined)", "values": [
      {"measurement": "MIC", "setting": "Escherichia coli [9]", "value": 3, "unit": "µM"},
      {"measurement": "MIC", "setting": "Enterococcus faecalis [10]", "value": "3 to 1020", "unit": "µM"},
      {"measurement": "MIC", "setting": "Staphylococcus aureus [11]", "value": "3 to 1020", "unit": "µM"},
      {"measurement": "MIC", "setting": "Pseudomonas aeruginosa [12]", "value": "3 to 1020", "unit": "µM"},
      {"measurement": "MIC", "setting": "Staphylococcus aureus [13]", "value": "3 to 1020", "unit": "µM"},
      {"measurement": "MIC", "setting": "Klebsiella pneumoniae [14]", "value": "3 to 1020", "unit": "µM"},
      {"measurement": "Ratio", "setting": "Escherichia coli [15]", "value": 33},
      {"measurement": "MIC", "setting": "Pseudomonas aeruginosa [16]", "value": "3 to 1020", "unit": "µM"},
      {"measurement": "MIC", "setting": "Escherichia coli [17]", "value": "3 to 1020", "unit": "µM"},
      {"measurement": "MIC", "setting": "Staphylococcus aureus [18]", "value": "3 to 1020", "unit": "µM"}
    ]},
    {"compound": "Cc1ncc([N+](=O)[O-])n1CCNCc1no[n+]([O-])c1C#N", "values": [
      {"measurement": "MIC", "setting": "Helicobacter pylori [19]", "value": "0.25 to 1", "unit": "µg/mL"},
      {"measurement": "MIC90", "setting": "Helicobacter pylori [19]", "value": 1, "unit": "µg/mL"},
      {"measurement": "MIC90", "setting": "Helicobacter pylori [20]", "value": "0.5 to 32", "unit": "µg/mL"},
      {"measurement": "MIC", "setting": "Helicobacter pylori [21]", "value": 5, "unit": "µg/mL"},
      {"measurement": "MIC90", "setting": "Helicobacter pylori [21]", "value": 0.5, "unit": "µg/mL"},
      {"measurement": "MIC90", "setting": "Helicobacter pylori [22]", "value": "0.5 to 32", "unit": "µg/mL"},
      {"measurement": "Ratio", "setting": "Helicobacter pylori [23]", "value": ">32"}
    ]},
    {"compound": "Cc1ncc([N+](=O)[O-])n1CCO", "note": "[METRONIDAZOLE]", "values": [
      {"measurement": "zone of inhibition at 8 µg/disc", "setting": "Helicobacter pylori [24]", "value": 18, "unit": "mm"},
      {"measurement": "zone of inhibition at 8 µg/disc", "setting": "Helicobacter pylori [25]", "value": 16.3, "unit": "mm"},
      {"measurement": "zone of inhibition at 8 µg/disc", "setting": "Helicobacter pylori [26]", "value": 11, "unit": "mm"},
      {"measurement": "MIC90", "setting": "Helicobacter pylori [19]", "value": "> 32", "unit": "µg/mL"},
      {"measurement": "zone of inhibition at 2.5 µg/disc", "setting": "Clostridioides difficile [27]", "value": "9 to 22", "unit": "mm"},
      {"measurement": "zone of inhibition at 2.5 µg/disc", "setting": "Clostridioides difficile [28]", "value": "9 to 22", "unit": "mm"},
      {"measurement": "zone of inhibition at 2.5 µg/disc", "setting": "Clostridioides difficile [29]", "value": "9 to 22", "unit": "mm"}
    ]},
    {"compound": "CCn1cc(C(=O)O)c(=O)c2cc(F)c(N3CCNCC3)cc21", "note": "[NORFLOXACIN]", "values": [
      {"measurement": "MIC", "setting": "Bacillus subtilis [30]", "value": "0.13 to 1", "unit": "µg/mL"},
      {"measurement": "MIC", "setting": "Escherichia coli [31]", "value": "0.13 to 1", "unit": "µg/mL"},
      {"measurement": "MIC", "setting": "Escherichia coli [9]", "value": 100, "unit": "µM"},
      {"measurement": "MIC", "setting": "Enterococcus faecalis [10]", "value": "13 to 1600", "unit": "µM"},
      {"measurement": "MIC", "setting": "Staphylococcus aureus [11]", "value": "13 to 1600", "unit": "µM"},
      {"measurement": "MIC", "setting": "Staphylococcus aureus [32]", "value": "0.13 to 1", "unit": "µg/mL"},
      {"measurement": "MIC", "setting": "Pseudomonas aeruginosa [12]", "value": "13 to 1600", "unit": "µM"},
      {"measurement": "MIC", "setting": "Staphylococcus aureus [13]", "value": "13 to 1600", "unit": "µM"},
      {"measurement": "MIC", "setting": "Klebsiella pneumoniae [14]", "value": "13 to 1600", "unit": "µM"},
      {"measurement": "ED50", "setting": "Escherichia coli [33]", "value": 5.6, "unit": "mg/kg"},
      {"measurement": "MIC", "setting": "Pseudomonas aeruginosa [16]", "value": "13 to 1600", "unit": "µM"},
      {"measurement": "MIC", "setting": "[34]", "value": "0.13 to 1", "unit": "µg/mL"},
      {"measurement": "MIC", "setting": "Escherichia coli [17]", "value": "13 to 1600", "unit": "µM"},
      {"measurement": "MIC", "setting": "Klebsiella pneumoniae [35]", "value": "0.13 to 1", "unit": "µg/mL"},
      {"measurement": "MIC", "setting": "Staphylococcus aureus [18]", "value": "13 to 1600", "unit": "µM"}
    ]}
  ]
}
